From ChEMBL document CHEMBL1201862, “PubChem BioAssay data set” (2004) come the findings set out here.

The source made the active and inactive calls.

As usually defined, the EC50 is the concentration giving half of the maximal effect. What is called IC50 is the concentration needed to halve the response being measured. What is called CC50 is the concentration that lowers cell viability or growth by half.

Test [1] concerns the target Beta-2 adrenergic receptor (Homo sapiens, UniProt P07550). Description: ADRB2 activation measured by internalization – cell-based, FAP fluorogen, flow cytometry, cherry pick 1, dose response (AID 588763). The format is functional. On the technique in general: A flow cytometer gives signals particle by particle.
The next test deals with Cysteine protease ATG4B (Homo sapiens, UniProt Q9Y4P1). Type of test: functional.
Cysteine protease ATG4B, sequence (Q9Y4P1 whole entry): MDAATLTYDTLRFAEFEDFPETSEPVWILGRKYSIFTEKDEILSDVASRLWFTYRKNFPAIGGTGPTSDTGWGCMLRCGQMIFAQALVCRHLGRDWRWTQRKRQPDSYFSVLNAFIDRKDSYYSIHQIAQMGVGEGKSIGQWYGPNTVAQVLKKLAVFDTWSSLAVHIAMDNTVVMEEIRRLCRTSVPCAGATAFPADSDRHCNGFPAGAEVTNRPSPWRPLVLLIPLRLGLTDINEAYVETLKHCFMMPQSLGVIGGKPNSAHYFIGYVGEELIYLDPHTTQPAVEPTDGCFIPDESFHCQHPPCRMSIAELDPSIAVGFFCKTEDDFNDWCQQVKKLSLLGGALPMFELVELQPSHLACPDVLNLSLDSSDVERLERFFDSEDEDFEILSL
A further test has as its target Phospholipase A2 (Homo sapiens, UniProt P04054). The format is functional.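 Further: confirmatory dose-response counterscreen on phospholipase A2, testing hits that came from an ultra-high-throughput screen for ATG4B inhibitors.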
For test [2], the target named is T1, Heat shock factor protein 1 (Mus musculus, UniProt P38532).
T1 sequence (P38532 whole entry): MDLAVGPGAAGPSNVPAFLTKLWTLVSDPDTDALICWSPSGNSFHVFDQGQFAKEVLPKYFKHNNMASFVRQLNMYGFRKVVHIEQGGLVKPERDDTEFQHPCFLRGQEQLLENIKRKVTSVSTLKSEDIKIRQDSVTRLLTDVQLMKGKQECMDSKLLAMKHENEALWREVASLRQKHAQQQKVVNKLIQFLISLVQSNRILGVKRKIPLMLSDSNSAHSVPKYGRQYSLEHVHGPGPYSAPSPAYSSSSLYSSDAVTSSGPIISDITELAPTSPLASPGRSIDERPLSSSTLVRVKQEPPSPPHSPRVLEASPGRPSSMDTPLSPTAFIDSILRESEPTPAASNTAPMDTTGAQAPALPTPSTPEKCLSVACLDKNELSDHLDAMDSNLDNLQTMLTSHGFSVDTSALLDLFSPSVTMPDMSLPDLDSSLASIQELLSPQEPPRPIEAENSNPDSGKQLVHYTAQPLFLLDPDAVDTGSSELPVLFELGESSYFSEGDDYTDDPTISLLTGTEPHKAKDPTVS
Description: decrease of HSF1-responsive luciferase luminescence – cell-based, NIH3T3, dose retest, confirmation (AID 2382).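 Further: NIH3T3 fibroblasts with HSF1-driven luciferase reporter stressed by proteasome inhibitor MG132; luminescence from HSF1-driven luciferase expression after 8 hours of MG132 stress.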 Type of test: functional.

Test [3] has as its target Voltage-dependent T-type calcium channel subunit alpha-1H (Homo sapiens, UniProt O95180). Type of test: functional.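 Further: channel activity triggered by adding a high calcium stimulation buffer.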
Test [4] can be described thus: Luminescence Cell-Based Dose Confirmation HTS to Identify Activators of 5'UTR Stem-Loop Driven Alpha-Synuclein mRNA Translation in H4 Neuroglioblastoma Cells. [Related pubchem assays: 1829 (Project Summary), 1814 (Primary HTS)]. Type of test: functional.
A short description of test [5]: Luminescence Cell-Based Dose Response HTS to Identify Activators of Luciferase Translation or Activity in H4 […] Cells. [Related pubchem assays: 1829 (Project Summary), 1814 (Primary HTS)]. Type of test: functional.
A short description of test [6]: cells. Type of test: functional, cell-based.
In a further test the test system is H4. The experiment in a line: Luminescence Cell-Based Dose Response HTS to Identify Activators of 5'UTR Stem-Loop Driven Prion Protein mRNA Translation in H4 Neuroglioblastoma Cells. [Related pubchem assays: 1829 (Project Summary), 1814 (Primary HTS)]. The format is functional. The following applies: Homo sapiens.
The nature of test [7]: cells. Type of test: functional, cell-based. This is another data set of the same source.
For another test, the system named is HEK293. Description: cells. The format is functional, cell-based. Particulars: Homo sapiens.
The target in test [8] is T2, Nuclear receptor subfamily 0 group B member 1 (Homo sapiens, UniProt P51843).
T2 sequence (P51843 whole entry): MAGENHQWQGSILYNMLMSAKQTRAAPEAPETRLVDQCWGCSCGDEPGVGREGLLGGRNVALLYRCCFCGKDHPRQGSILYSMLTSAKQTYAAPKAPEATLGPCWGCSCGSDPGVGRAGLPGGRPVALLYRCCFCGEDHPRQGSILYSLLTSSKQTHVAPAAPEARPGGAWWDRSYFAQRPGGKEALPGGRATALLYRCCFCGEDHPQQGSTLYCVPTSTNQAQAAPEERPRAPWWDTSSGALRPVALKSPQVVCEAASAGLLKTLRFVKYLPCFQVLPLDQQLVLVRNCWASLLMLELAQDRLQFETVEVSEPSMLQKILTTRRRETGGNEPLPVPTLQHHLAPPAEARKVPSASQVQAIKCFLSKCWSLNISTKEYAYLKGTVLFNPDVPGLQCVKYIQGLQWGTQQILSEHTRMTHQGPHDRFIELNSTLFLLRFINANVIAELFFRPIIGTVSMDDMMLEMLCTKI
The experiment in a line: Luminescence-based cell-based high throughput dose response assay for inhibitors of the orphan nuclear receptor subfamily 0, group B, member 1 (DAX1; NR0B1). [Related pubchem assays (depositor defined):AID504766, AID504790]. Type of test: functional.

Test [9] concerns the target T3, Oxysterols receptor LXR-beta (Homo sapiens, UniProt P55055).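 Further: agonist activity at LXR measured by a cell-based luminescence readout across a dose range, run as a counterscreen for daf-12 agonists; HEK293 cells with Gal4-LXR fusion and GAL4-driven luciferase reporter; potency for activation of Gal4-LXR reporter so compounds are agonists.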
T3 sequence (P55055 whole entry): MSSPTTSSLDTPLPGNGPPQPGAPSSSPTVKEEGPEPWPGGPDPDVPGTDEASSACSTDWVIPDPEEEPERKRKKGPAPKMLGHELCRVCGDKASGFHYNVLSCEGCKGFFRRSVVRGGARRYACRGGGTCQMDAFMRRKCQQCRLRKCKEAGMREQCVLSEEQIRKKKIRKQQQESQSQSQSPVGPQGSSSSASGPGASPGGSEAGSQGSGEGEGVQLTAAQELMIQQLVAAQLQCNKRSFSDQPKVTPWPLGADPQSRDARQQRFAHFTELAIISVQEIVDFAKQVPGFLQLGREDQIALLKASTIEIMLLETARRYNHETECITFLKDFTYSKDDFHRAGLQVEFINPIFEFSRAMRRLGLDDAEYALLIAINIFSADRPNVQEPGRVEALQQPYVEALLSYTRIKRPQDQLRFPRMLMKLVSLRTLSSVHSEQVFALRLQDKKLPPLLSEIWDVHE
The format is functional, cell-based.

For a further test, the system named is Vero. Description: viability of Vero cells under compound – cytotoxicity control for flavivirus capping enzyme inhibitors (AID 588742). Type of test: functional. The following applies: Chlorocebus sabaeus.
Another test deals with Genome polyprotein (dengue virus type 2, UniProt P29990). The experiment in a line: flavivirus cap methylation enzyme inhibition – biochemical, confirmation dose response, primary screen (AID 588689). Type of test: functional.
Genome polyprotein, sequence (P29990 2492-3391 limits assumed): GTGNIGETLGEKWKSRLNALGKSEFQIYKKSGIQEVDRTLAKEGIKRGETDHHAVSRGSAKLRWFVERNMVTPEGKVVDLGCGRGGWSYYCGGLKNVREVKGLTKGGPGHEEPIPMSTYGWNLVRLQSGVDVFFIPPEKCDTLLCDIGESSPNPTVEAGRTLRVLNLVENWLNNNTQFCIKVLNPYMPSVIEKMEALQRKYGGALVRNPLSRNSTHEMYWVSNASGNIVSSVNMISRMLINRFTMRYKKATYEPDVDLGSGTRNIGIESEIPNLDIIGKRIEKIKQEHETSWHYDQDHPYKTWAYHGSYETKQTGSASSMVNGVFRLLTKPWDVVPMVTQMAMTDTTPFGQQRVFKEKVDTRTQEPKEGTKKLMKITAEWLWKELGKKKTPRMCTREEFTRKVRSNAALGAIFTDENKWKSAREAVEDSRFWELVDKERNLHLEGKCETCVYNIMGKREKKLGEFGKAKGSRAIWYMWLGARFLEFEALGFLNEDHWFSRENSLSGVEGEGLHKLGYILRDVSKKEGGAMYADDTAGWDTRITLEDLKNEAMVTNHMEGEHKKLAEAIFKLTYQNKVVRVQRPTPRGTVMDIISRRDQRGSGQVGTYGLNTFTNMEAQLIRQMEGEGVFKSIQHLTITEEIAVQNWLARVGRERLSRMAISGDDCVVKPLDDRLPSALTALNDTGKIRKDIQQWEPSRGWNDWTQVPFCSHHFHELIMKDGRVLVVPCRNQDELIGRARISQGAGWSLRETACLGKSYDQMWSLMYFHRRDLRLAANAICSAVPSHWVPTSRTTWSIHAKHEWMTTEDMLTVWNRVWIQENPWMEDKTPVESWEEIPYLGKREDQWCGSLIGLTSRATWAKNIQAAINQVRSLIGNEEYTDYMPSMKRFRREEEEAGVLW
A short description of test [10]: viability of uninfected HEp-2 cells – cell-based, HTS, cytotoxicity control for RSV inhibitor project, dose response (AID 2410). Type of test: functional. The following applies: human respiratory syncytial virus.
Test [11] in a line: viability of PTEN-deleted HCT116 cells – cell-based, HCT116 PTEN knockout, dose response (AID 1047).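 Further: HCT116 colon tumor cells with PTEN knocked out; cells exposed to compound for 60 hours before readout.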 The format is functional.
Test [12] can be described thus: viability of HCT116 lacking mutant beta-catenin – cell-based, human colon tumor, dose response (AID 1045).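 Further: HCT116 colon tumor cells with beta catenin knocked out; cells exposed to compound for 60 hours.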 The format is functional.
The next test concerns CHO. Description: CHO cell viability loss, potency – luminescence, cytotoxicity control for TLR9-MyD88 binding inhibitor project, dose response (AID 588339).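 Further: CHO cells stably coexpressing TLR9 and MyD88 fusions from primary screen; compound exposure lasted 48 hours before viability readout.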 The following applies: Cricetulus griseus. Type of test: functional, cell-based, hamster.
A further test has as its target Beta Lactamase (Pseudomonas aeruginosa, UniProt Q932Y6). Description: BLA reporter interference, concentration series – BLA reporter cells, FRET fluorescence, artefact control for TLR9-MyD88 binding inhibitor project, dose response (AID 588341).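 Further: cell based assay in CHO-K1 cells stably expressing beta-lactamase.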 Type of test: cell-based.
For test [13], the target named is Induced myeloid leukemia cell differentiation protein Mcl-1 (Homo sapiens, UniProt Q07820). The format is functional.
Induced myeloid leukemia cell differentiation protein Mcl-1, sequence (Q07820 whole entry): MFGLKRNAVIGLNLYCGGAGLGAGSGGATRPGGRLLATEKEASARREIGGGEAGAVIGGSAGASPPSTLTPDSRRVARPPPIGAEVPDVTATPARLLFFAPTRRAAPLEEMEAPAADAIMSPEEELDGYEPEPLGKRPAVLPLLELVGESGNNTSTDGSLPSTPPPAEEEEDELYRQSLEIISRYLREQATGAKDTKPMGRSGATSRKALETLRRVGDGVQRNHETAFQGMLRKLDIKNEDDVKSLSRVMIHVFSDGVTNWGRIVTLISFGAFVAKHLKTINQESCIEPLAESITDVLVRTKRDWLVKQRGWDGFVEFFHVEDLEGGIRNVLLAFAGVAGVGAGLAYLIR

Beta-2 adrenergic receptor, sequence (P07550 whole entry): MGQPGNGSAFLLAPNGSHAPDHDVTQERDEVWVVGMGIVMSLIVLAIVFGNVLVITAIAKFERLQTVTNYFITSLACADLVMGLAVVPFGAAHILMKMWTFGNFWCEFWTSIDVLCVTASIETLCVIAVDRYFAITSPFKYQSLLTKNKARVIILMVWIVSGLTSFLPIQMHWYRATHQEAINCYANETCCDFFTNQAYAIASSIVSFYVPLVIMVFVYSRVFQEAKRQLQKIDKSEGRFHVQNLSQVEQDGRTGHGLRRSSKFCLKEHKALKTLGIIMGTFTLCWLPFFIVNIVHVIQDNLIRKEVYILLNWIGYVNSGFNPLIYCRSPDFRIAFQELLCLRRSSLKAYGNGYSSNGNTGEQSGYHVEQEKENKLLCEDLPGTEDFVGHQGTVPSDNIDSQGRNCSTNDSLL
Phospholipase A2, sequence (P04054 whole entry): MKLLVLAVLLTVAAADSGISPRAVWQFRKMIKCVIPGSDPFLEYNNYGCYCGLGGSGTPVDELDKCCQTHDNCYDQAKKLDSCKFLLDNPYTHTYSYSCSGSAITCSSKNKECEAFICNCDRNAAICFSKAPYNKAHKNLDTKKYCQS
Beta Lactamase, sequence (Q932Y6 whole entry): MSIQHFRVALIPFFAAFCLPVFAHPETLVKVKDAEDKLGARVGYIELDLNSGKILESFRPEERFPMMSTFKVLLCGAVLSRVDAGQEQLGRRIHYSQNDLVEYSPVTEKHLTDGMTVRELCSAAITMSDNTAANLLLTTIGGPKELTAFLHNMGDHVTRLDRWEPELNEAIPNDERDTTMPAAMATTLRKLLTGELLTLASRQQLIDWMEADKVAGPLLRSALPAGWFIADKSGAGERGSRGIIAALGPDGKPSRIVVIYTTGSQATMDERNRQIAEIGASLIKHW
Voltage-dependent T-type calcium channel subunit alpha-1H, sequence (O95180 whole entry): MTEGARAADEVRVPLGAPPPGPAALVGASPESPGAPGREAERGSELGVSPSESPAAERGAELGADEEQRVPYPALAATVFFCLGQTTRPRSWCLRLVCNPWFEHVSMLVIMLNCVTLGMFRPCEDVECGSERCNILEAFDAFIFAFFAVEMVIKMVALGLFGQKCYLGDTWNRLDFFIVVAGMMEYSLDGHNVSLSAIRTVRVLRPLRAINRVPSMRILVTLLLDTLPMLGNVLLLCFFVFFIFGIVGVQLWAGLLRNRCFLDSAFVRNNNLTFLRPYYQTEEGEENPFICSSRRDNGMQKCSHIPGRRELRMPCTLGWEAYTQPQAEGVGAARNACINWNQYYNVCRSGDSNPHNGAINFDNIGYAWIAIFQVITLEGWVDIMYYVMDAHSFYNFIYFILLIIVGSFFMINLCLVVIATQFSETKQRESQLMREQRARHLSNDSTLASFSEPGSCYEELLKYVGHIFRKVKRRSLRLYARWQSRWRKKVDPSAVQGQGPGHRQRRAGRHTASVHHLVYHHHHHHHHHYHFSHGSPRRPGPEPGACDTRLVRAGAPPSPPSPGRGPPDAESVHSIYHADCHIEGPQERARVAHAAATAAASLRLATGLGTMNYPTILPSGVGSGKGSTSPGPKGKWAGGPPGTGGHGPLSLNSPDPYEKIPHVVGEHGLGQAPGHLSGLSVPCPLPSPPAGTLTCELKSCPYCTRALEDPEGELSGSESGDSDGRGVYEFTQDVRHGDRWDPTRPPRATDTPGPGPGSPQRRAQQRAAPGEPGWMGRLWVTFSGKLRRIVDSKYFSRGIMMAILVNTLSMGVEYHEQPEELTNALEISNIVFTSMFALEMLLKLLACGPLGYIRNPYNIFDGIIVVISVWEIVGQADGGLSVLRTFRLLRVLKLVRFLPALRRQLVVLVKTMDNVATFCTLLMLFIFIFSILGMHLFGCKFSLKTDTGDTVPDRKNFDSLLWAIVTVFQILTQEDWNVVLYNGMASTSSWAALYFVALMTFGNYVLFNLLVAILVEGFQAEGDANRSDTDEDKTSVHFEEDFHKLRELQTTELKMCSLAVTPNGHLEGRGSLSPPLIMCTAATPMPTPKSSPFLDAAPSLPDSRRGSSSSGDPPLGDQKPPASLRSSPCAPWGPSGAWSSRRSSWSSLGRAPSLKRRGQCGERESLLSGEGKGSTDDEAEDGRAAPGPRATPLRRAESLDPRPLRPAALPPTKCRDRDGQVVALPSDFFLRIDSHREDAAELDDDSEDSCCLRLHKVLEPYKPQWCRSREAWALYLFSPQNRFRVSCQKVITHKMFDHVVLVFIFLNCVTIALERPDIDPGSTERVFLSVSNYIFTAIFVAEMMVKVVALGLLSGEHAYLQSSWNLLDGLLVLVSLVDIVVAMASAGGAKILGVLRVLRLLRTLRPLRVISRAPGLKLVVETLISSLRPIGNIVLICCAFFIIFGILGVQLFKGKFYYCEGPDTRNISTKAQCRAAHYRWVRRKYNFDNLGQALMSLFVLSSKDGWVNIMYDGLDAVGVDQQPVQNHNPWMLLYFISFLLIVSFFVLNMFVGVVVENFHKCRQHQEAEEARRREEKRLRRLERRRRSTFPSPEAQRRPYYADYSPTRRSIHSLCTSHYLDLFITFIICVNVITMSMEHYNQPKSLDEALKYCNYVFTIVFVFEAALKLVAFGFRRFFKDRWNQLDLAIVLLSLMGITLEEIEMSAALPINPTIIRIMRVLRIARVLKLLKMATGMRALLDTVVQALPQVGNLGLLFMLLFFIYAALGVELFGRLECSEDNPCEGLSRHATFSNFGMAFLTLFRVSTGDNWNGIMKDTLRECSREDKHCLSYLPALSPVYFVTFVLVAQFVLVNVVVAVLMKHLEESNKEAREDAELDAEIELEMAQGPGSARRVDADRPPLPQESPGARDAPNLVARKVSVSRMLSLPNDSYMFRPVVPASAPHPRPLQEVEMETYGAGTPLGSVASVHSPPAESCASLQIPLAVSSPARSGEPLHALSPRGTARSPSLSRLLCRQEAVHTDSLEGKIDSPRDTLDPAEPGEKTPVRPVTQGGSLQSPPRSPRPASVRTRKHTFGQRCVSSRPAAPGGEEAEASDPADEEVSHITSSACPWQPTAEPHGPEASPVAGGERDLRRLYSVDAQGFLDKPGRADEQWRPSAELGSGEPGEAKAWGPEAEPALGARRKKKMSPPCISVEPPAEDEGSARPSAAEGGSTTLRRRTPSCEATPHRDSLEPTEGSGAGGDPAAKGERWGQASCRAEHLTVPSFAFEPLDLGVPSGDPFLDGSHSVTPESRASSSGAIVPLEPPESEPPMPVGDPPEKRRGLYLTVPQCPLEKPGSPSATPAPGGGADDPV

Regarding `CN(CC(=O)N1CCN(c2ncccn2)CC1)S(=O)(=O)c1ccc(Cl)cc1`, in test [1], the EC50 was 0.117 µM (active).

In the case of `CCOC(=O)C1CCCN(C(=O)c2ccc3c(=O)n(Cc4ccccc4OC)c(=S)[nH]c3c2)C1` (stereo unspecified), the IC50 on Cysteine protease ATG4B is 19.6 µM (active); at Phospholipase A2 it was 9.33 µM (active).

On to `CC(=O)Nc1ccc(-c2cn3c(n2)SCC3)cc1`, for which the EC50 was > 195 µM (not active) in test [2] and 10.9 µM (inactive) in test [1].

In the case of `Cc1cccc(C)c1OCC(=O)Nc1cccc(NC(=O)c2ccco2)c1`, the EC50 in test [3] was 6.78 µM (active). Further, the IC50 at Cysteine protease ATG4B was 15.9 µM (active); at Phospholipase A2 it was 8.37 µM (active).

Regarding `O=C(Nc1ncccc1O)c1ccc(C(=O)c2ccccc2)cc1`, the EC50 in [4] was 11.4 µM (active); in test [5], 16.4 µM (active); in “cells [6]”, 72.7 µM (active); in the test on H4, 23 µM (active); in the test “cells [7]” it was 48.2 µM (active); in [9], > 67.5 µM (inactive). In addition, the values for the IC50 (with HEK293; in test [8]) were 1.04 µM (active) and > 67.6 µM (inactive), respectively.

As for `COC(=O)COc1ccc(C(C2C(=O)CC(C)(C)CC2=O)C2C(=O)CC(C)(C)CC2=O)cc1`, the cytotoxic concentration (CC50) with Vero was > 40 µM (active). Besides, at Genome polyprotein, the IC50 is 48 µM (active).

For `COc1ccccc1NS(=O)(=O)c1cc([N+](=O)[O-])ccc1N/N=C/c1c[nH]c2ccccc12`, the CC50 in test [10] is 41.7 µM (active). Moreover, the EC50 was 21.9 µM (active) in [11] and 21.8 µM (active) in test [12]. The IC50 was 32 µM (inactive) in the test on CHO and 2.74 µM (active) at Beta Lactamase.

On to `COc1ccccc1NC1=C(NC(C)=O)C(=O)c2ccccc2C1=O`, for which the IC50 in test [13] is 2.28 µM (active); at Genome polyprotein, > 100 µM (active). For the same molecule, in the test on Vero, the CC50 is > 40 µM (active).
